Laboratory results reported in patent US8487072B2, “Compounds for stimulating P-glycoprotein function and uses thereof” (Angiochem Inc., priority 2006, dated 2013).
Where two headings read alike, the source gives them in different places.

Assays:
P-gp [1] = assay: Brain uptake of [3H]-Taxol in vivo (P-gp efflux transport at the blood brain barrier); design: species or system mice; settings: peptide 20 μg/ml; for reduction of [3H]-Taxol in the capillaries and in the parenchyma relative to total brain: [3H]-Taxol perfused 5 minutes; for reduction of Taxol passage in the total brain vs control mice: [3H]-Taxol perfused through right jugular vein for 5 minutes, total brain (FIG. 2)
Protocol: The effect of compounds on P-gp efflux transport activity was investigated in vivo. For this purpose, the brain uptake of [^3H]-Taxol, a specific substrate of P-gp, was measured. [^3H]-Taxol was perfused into the brain through the right jugular vein for 5 minutes in the presence or absence of pepCav or pepPgp at a concentration of 20 μg/ml. Radioactivity of [^3H]-Taxol was analyzed in the total brain, the capillary and the parenchyma.

[2] = tested on: human umbilical vein endothelial cells (HUVEC); assay: HUVEC tube formation on Matrigel (angiogenesis in vitro); format: cell-based; settings: 40 μg/ml, 18 hours (FIG. 4A)
Protocol: The effect of these compounds on angiogenesis was evaluated in vitro using human umbilical vein endothelial cells (HUVEC) tube formation on Matrigel. Following transfections, cells were trypsinized and 2.5×10^4 cells were seeded on Matrigel. After cellular adhesion, the medium was removed and 100 μl fresh medium was added with or without 40 μg/ml of either pepCav or pepPgp. Tube formation was evaluated after 18 hours. After incubation, tubular structures were visualized at 60× magnification using a Nikon TMS-F microscope and Northern Eclipse Software.

angiogenesis = assay: Matrigel plug assay (angiogenesis in vivo), hemoglobin content; settings: Matrigel with heparin and bFGF under the skin of mice, plug removed after one week; 100 μg/ml in the method, 40 μg/ml in the result sentence (FIG. 4B)
Protocol: The effect of these compounds on angiogenesis was evaluated in vivo using the Matrigel plug assay. Briefly, Matrigel containing heparin and bFGF was injected under the skin of mice in the presence or absence of 100 μg/ml pepCav and pepPgp. The Matrigel plug was removed after one week. Hemoglobin content in the Matrigel plugs, which corresponds to the vessels formed, was measured.

P-gp [3] = biological target: P-gp (Homo sapiens, UniProt P08183)
P-gp (Homo sapiens, UniProt P08183), sequence (P08183 whole entry): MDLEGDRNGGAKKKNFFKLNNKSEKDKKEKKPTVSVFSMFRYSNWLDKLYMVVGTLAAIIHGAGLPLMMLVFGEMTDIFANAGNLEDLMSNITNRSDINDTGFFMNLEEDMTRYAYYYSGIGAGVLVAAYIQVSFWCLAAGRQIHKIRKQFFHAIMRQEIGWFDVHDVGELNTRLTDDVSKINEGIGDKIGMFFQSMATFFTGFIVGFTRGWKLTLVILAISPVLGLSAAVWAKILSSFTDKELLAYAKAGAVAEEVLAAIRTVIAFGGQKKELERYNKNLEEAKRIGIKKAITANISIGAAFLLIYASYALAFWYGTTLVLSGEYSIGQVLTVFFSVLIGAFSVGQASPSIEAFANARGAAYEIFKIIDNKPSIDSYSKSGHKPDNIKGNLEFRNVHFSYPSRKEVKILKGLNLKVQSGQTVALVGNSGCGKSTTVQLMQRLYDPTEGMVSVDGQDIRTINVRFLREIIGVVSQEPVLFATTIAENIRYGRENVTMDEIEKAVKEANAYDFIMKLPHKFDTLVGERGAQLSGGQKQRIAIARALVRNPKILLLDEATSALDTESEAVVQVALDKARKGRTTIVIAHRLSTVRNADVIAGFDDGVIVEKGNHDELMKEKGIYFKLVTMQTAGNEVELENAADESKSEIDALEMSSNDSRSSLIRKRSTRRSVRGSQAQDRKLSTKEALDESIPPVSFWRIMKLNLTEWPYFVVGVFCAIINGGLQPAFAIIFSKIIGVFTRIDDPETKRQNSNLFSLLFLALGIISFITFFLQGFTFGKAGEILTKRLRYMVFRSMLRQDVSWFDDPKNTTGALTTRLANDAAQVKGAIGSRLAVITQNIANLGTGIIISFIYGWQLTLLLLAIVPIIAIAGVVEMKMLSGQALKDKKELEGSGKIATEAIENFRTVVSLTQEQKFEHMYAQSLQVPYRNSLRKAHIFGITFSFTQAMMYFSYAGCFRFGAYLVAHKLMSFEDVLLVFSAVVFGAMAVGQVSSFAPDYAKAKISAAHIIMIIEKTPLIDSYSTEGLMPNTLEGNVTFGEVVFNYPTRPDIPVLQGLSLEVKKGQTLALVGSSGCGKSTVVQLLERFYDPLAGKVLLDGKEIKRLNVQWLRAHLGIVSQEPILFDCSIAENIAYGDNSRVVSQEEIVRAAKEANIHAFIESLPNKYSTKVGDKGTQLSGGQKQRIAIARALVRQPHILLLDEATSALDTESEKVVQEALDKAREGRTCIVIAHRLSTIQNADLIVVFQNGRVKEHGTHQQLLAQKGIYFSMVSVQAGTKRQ

MDCK-MDR1 cells = assay: Cell migration of MDCK-MDR1 cells, Transwell filters; format: cell-based, canine; settings: 20 μg/ml, Transwell 8 μm precoated with 0.15% gelatin, 10% serum as chemoattractant (FIGS. 3A, 3B)
Protocol: The effect of both compounds on cell migration, was determined by the migration of MDCK-MDR1 cells using Transwell filters (Costar; 8 μm pore size) precoated with 0.15% gelatin. Briefly, 1×10^5 cells were resuspended in 100 μl of serum-free medium with or without compounds (20 μg/ml). The lower chamber of the Transwell contained 10% serum used as chemoattractant. Cell migration was determined using a Nikon TMS-F microscope and Northern Eclipse Software. As observed in FIGS. 3A and 3B, pepPgp and pepCav inhibited cells migration of MDCK-MDR1 by 30% and 80%, respectively, as compared to the control.

| Sequence | reduction of [3H]-Taxol in the capillaries and in the parenchyma relative to total brain (P-gp [1]) | reduction of Taxol passage in the total brain vs control mice (P-gp [1]) | reduction of capillary-like structure formation [2] | reduction of hemoglobin content in Matrigel plug vs control (bFGF alone) (angiogenesis) | accumulation of [3H]-vinblastine as a function of time (P-gp [3]; MDCK-MDR1 cells, 20 μg/ml peptide, different times following treatment (FIG. 1A)) | [3H]-vinblastine accumulation with increasing concentrations of compound (P-gp [3]; MDCK-MDR1 cells, increasing concentrations (FIG. 1B)) | inhibition of cell migration of MDCK-MDR1 vs control (MDCK-MDR1 cells) | [3H]-vinblastine accumulation with increasing concentrations of compound (P-gp [3]) |
| --- | --- | --- | --- | --- | --- | --- | --- | --- |
| DGIWKASFTTFTVTKYWFYR [pepCav, exemplary peptide derived from the caveolin-1 scaffolding domain (amino acids 82-101)] | similar | 50% | 75% | 25% | decreased as a function of time | reduced | 80% | – |
| VFSMFRYSNWLDK [pepPgp] | similar | 30% | 40% | 40% | – | – | 30% | reduced |
